This data set in a line: pH dependence of esmolol degradation. It is filed as physicochemical. From the text: The concentrate of present invention can also include a pharmaceutically acceptable buffer to aid in maintaining the pH in a range of from about 3.5 to about 7.0. Preferably, the pH is maintained between about 4.5 and about 5.5, more preferably between 4.9 and 5.1. […] Suitable buffers are those buffers that provide sufficient buffering capacity at the desired pH range and are pharmaceutically acceptable for injection into a patient. Examples of buffers useful in the present invention include, but are not limited to, acetate, glutamate, citrate, tartrate, benzoate, lactate, gluconate, phosphate and glycine and conjugate acids thereof. The concentration of the buffer can be from about 0.005 to about 2 M. In a preferred embodiment, the buffering agent comprises a combination of sodium acetate and glacial acetic acid. A preferred combination of buffers can include sodium acetate at from about 0.005 to about 0.3 M and glacial acetic acid at from about 0.05 to about 0.3 M.

Consider one compound from patent US8722736B2, “Multi-dose concentrate esmolol with benzyl alcohol” (Baxter International Inc., priority 2007, dated 2014).

Consider `COC(=O)CCc1ccc(OCC(O)CNC(C)C)cc1.Cl` (stereo not shown) [esmolol, methyl3-[4-[2-hydroxy-3-(isopropylamino)propoxy]phenyl]propionate hydrochloride], for which the “pH at which esmolol is most stable” value is listed as “about 5.0”.
